According to paper PMC7345905, “Microbial Metabolite Urolithin B Inhibits Recombinant Human Monoamine Oxidase A Enzyme” (Metabolites, 2020):
Values joined by “and” are separate entries in the source; they are usually repeats but may differ in a detail not shown here. Identical values can stand only once.

How the values were obtained:
human recombinant MAO-A = target: T1, human recombinant MAO-A (Homo sapiens, UniProt P21397); assay: MAO-Glo MAO-A inhibition assay; format: biochemical; conditions: 100 µM
T1 construct: purchased Sigma-Aldrich
T1 sequence (P21397 1-527): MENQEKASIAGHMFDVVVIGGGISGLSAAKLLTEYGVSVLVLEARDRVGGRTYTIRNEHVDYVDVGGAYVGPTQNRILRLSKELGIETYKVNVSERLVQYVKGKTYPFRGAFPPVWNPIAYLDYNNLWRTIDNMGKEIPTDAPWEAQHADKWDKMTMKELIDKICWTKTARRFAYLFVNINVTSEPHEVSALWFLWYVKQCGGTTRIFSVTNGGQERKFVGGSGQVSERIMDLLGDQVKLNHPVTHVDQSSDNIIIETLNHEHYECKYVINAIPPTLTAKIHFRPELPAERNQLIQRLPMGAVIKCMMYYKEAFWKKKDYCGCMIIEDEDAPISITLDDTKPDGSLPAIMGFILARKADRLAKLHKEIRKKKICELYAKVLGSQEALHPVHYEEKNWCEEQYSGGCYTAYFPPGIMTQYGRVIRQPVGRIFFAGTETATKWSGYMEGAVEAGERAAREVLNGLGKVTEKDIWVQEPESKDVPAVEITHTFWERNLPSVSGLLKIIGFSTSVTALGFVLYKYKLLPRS
Protocol: (§1) MAO inhibition assays were performed using a MAO-Glo™ Assay kit (Promega) according to the manufacturer’s instructions. Briefly, 1 µg of human recombinant MAO-A and MAO-B enzyme isoforms were incubated with 160 and 16 µM of MAO substrates, respectively. […] The enzyme reaction was quenched by the addition of a luciferin detection reagent. […] An equal volume of dimethyl sulfoxide (0.1%) was added to the enzyme assay as a control. After 1 h of incubation, the luminescence was measured with a multimode microplate reader (Synergy HT, BioTek, Winooski, VT, USA) to determine the MAO enzyme activities. Initially, the inhibition potential of all the test compounds was evaluated at a concentration of 100 μM. The control reaction (with no inhibitor) with vehicle (DMSO 0.1%) was set at 100% activity. To determine IC50 of the test compounds, the dose dependent enzyme assays were performed. We used range of 0.1 to 50 μM concentrations for MAO-A and 0.1 to 200 μM concentrations of test compounds for the MAO-B enzyme activities. The type of enzyme inhibition was determined using variable concentrations of MAO-A substrate (10–360 µM) and MAO-B substrate (2–64 µM) for the respective enzyme assay. […] A Lineweaver–Burk double reciprocal plot was generated, and the mode of inhibition was determined by visual examination of the plot. The slope of the reciprocal plots was plotted against the inhibitor concentrations and determined the x-axis intercept that represented the inhibitor constant, Ki value.

human recombinant MAO-B = target: T2, human recombinant MAO-B (Homo sapiens, UniProt P27338); assay: MAO-Glo MAO-B inhibition assay; format: biochemical
T2 construct: purchased Sigma-Aldrich
T2 sequence (P27338 1-520): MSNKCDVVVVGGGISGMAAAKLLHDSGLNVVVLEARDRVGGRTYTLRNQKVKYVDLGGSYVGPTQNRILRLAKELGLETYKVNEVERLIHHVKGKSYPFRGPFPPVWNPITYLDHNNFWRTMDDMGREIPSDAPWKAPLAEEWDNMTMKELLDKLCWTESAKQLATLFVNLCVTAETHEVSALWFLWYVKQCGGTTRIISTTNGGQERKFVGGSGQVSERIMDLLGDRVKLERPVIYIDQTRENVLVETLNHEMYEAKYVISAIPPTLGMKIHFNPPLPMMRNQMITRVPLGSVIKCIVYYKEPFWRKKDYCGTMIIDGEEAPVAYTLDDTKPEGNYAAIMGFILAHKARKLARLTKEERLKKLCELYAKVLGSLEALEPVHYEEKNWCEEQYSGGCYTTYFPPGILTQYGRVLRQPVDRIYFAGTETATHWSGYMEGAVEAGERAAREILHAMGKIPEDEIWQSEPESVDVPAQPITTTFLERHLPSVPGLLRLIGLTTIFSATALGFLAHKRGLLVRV
Protocol: as §1

O=c1oc2c(O)c(O)cc3c(=O)oc4c(O)c(O)cc1c4c23 [EA, ellagic acid]
MAO-A enzyme assay, Percent of control (human recombinant MAO-A; 100 µM (Figure 1A), N=1-3): 80.5551% of control and 100.559% of control and 100.148% of control | inhibition of MAO-A enzyme activity (human recombinant MAO-A; compared to vehicle): failed to inhibit | inhibition at 100 µM (human recombinant MAO-B; 100 μM): 20 to 30% | MAO-B enzyme assay, Percent of control (human recombinant MAO-B; 100 µM (Figure 1C), N=1-3, 100 µM): 89.6601% of control and 87.5901% of control | remaining activity at 100 µM (human recombinant MAO-B; 100 µM (Figure 1C), N=1-3, read-out: MAO-B enzyme assay, Percent of control): 88.7%
